Experimental data published in DBAASP.
In brackets after ≈: the same amount, converted by molar mass.

Key:
Test in all cases: ≥ marks a high value that may be exact or a test limit, other limits are often not marked, values filed in µg/mL are converted to µM
[1] = system: Candida albicans ATCC 2002
[2] = system: Escherichia coli ATCC 25922
[3] = system: Pseudomonas aeruginosa CMCCB 10104
[4] = system: Staphylococcus aureus ATCC 25923

Compound	MIC [1] [µM]	MIC [2] [µM]	MIC [3] [µM]	MIC [4] [µM]
CC[C@H](C)[C@H](NC(=O)CNC(=O)[C@H](CCCCN)NC(=O)CNC(=O)[C@@H](NC(=O)[C@H](Cc1ccccc1)NC(=O)[C@H](CCCCN)NC(=O)[C@H](CO)NC(=O)[C@H](Cc1ccccc1)NC(=O)[C@H](CC(C)C)NC(=O)CN)C(C)C)C(=O)N[C@@H](CCCCN)C(=O)N[C@@H](CC(N)=O)C(=O)N[C@@H](Cc1ccccc1)C(=O)N[C@@H](CC(C)C)C(=O)N[C@H](C(=O)N[C@@H](CCCCN)C(=O)NCC(=O)N[C@H](C(=O)N[C@@H](CCCCN)C(=O)N[C@@H](Cc1cnc[nH]1)C(=O)N[C@H](C(=O)NCC(=O)N[C@@H](CCCCN)C(=O)N[C@@H](CCC(=O)O)C(=O)N[C@H](C(=O)NCC(=O)N[C@@H](CCSC)C(=O)N[C@@H](CC(=O)O)C(=O)N[C@H](C(=O)N[C@H](C(=O)N[C@@H](CCCN=C(N)N)C(=O)N[C@H](C(=O)NCC(=O)N[C@H](C(=O)N[C@@H](CC(=O)O)C(=O)N[C@H](C(=O)N[C@@H](C)C(=O)NCC(=O)N[C@H]1CSSC[C@@H](C(=O)O)NC(=O)[C@H](C(C)C)NC(=O)CNC(=O)[C@H](CCCCN)NC(=O)[C@H]([C@@H](C)CC)NC(=O)[C@H](CCCCN)NC1=O)C(C)C)[C@@H](C)CC)C(C)C)[C@@H](C)CC)C(C)C)C(C)C)[C@@H](C)CC)C(C)C)[C@@H](C)CC [GLFSKFVGKGIKNFLIKGVKHIGKEVGMDVIRVGIDVAGCKIKGVC]	0.494 (≈ 2.4 µg/mL)	0.247 (≈ 1.2 µg/mL)	0.247 (≈ 1.2 µg/mL)	0.247 (≈ 1.2 µg/mL)
CC[C@H](C)[C@H](NC(=O)[C@H](CC(C)C)NC(=O)[C@H](CCC(N)=O)NC(=O)[C@@H](NC(=O)[C@H](C)NC(=O)CNC(=O)[C@H](CCCCN)NC(=O)[C@@H](NC(=O)[C@H](CC(C)C)NC(=O)[C@@H](NC(=O)[C@H](Cc1ccccc1)NC(=O)[C@@H](NC(=O)CN)C(C)C)[C@@H](C)O)[C@@H](C)CC)[C@@H](C)O)C(=O)NCC(=O)N[C@@H](CCCCN)C(=O)N[C@H](C(=O)N[C@@H](CC(C)C)C(=O)NCC(=O)N[C@@H](CCCCN)C(=O)N[C@@H](CCC(=O)O)C(=O)N[C@H](C(=O)NCC(=O)N[C@@H](CCCCN)C(=O)N[C@H](C(=O)NCC(=O)N[C@@H](CC(C)C)C(=O)N[C@@H](CCC(=O)O)C(=O)N[C@@H](CC(C)C)C(=O)N[C@@H](CCSC)C(=O)N[C@@H](C)C(=O)N[C@H]1CSSC[C@@H](C(=O)O)NC(=O)[C@H](CCC(N)=O)NC(=O)[C@H](CCCCN)NC(=O)[C@H]([C@@H](C)O)NC(=O)[C@H]([C@@H](C)CC)NC(=O)[C@H](CCCCN)NC1=O)[C@@H](C)O)C(C)C)[C@@H](C)O [GVFTLIKGATQLIGKTLGKEVGKTGLELMACKITKQC]	2.09 (≈ 8.1 µg/mL)	2.09 (≈ 8.1 µg/mL)	4.18 (≈ 16.2 µg/mL)	1.06 (≈ 4.1 µg/mL)
CC[C@H](C)[C@H](NC(=O)[C@H](C)NC(=O)[C@H](CC(C)C)NC(=O)[C@H](CCC(=O)O)NC(=O)[C@H](CCCCN)NC(=O)[C@H](Cc1ccccc1)NC(=O)[C@@H](NC(=O)[C@H](CO)NC(=O)[C@H](CC(C)C)NC(=O)[C@H](Cc1ccccc1)NC(=O)[C@@H](N)CO)[C@@H](C)O)C(=O)N[C@@H](CC(N)=O)C(=O)N[C@@H](C)C(=O)N[C@@H](C)C(=O)N[C@@H](CCCCN)C(=O)N[C@@H](CC(N)=O)C(=O)N[C@@H](C)C(=O)NCC(=O)N[C@@H](CCC(N)=O)C(=O)N[C@@H](CO)C(=O)N[C@@H](CC(C)C)C(=O)N[C@@H](CC(C)C)C(=O)N[C@@H](Cc1cnc[nH]1)C(=O)N[C@H](C(=O)N[C@@H](CC(C)C)C(=O)N[C@@H](CO)C(=O)N[C@H]1CSSC[C@@H](C(=O)O)NC(=O)[C@H]([C@@H](C)O)NC(=O)[C@H](CCCCN)NC(=O)[C@H](CC(=O)O)NC(=O)[C@H](CC(C)C)NC(=O)[C@H](CCCCN)NC1=O)[C@@H](C)O [SFLSTFKELAINAAKNAGQSLLHTLSCKLDKTC]	4.45 (≈ 15.8 µg/mL)	4.45 (≈ 15.8 µg/mL)	2.22 (≈ 7.9 µg/mL)	2.22 (≈ 7.9 µg/mL)
